Measurements published in patent US11597717B2, “Substituted imidazoles as PLXDC2 ligands” (Landos Biopharma, Inc., priority 2020, dated 2023).

What was measured:
[1] = test system: CD4+ T cells; assay: Immunological screening in vitro in CD4+ T cells (flow cytometry); type: cell-based, C57BL/6 mice; settings: for significance of change in IFNγ/TNFα production relative to vehicle treated control: tested at 100 nM and 1 μM, P<0.05; for reduction in IFNγ production: 24 h, anti-CD3/CD28, PMA/ionomycin last 6 h
Description: (§1) Cell culture. Spleens were excised from C57BL/6 mice. Spleens were crushed between the frosted ends of microscope slides and filtered to provide a cellular suspension. Red blood cells were lysed through hypotonic lysis. Remaining cells were washed and filtered. CD4+ T cells were enriched within the suspension using magnetic sorting based negative selection. Cells were collected and plated within 96 well plates coated with anti-CD3/CD28 and cultured in the presence of PX-02, PX-04, PX-07, PX-08 and PX-09 at 0, 0.1 or 1 micromolar for 24 h. During the last 6 h of culture, cells were stimulated with phorbol 12-myristate-13-acetate (PMA) and ionomycin.
(§2) Immunological analysis. Cells were collected from 96 well plates and stained with a cocktail of antibodies for immunophenotyping by flow cytometry. Culture supernatant was collected and assayed for cytokine concentrations by cytometric bead array. Data was captured on a BD FACS Celesta and analyzed using FACSDiva.

[2] = test system: CD4+ T cells deficient in PLXDC2; assay: Specificity test in PLXDC2 deficient CD4+ T cells; type: cell-based; settings: 100 nM or 1 μM; for IFNγ in the absence of PLXDC2: FIG. 4A; for TNFα in the absence of PLXDC2: FIG. 4B
Description: FIGS. 4A and 4B. Immunological validation of PX-04 and PX-07 specificity in CD4+ T cells. Percentages of IFNγ+(FIG. 4A) and TNFα+ (FIG. 4B) CD4+ T cells deficient in PLXDC2 were measured by flow cytometry after in vitro treatment of cells with PX compounds at concentrations of 0.1 and 1 micromolar. Statistical significance (P<0.05) is marked by asterisks.
as §1, §2
To determine the specificity of response to the PLXDC2 receptor, PX-04 and PX-07 were tested further in PLXDC2 deficient cells.

[3] = test system: bone marrow-derived macrophages (BMDMs); assay: Immunological screening in vitro in LPS-challenged bone marrow-derived macrophages (qRT-PCR, Luminex); type: cell-based, C57BL/6 mice; settings: 0.1 and 1 micromolar, dose dependent; for IFNγ in the supernatant / IL-6 in the supernatant / TNF in the supernatant / concentration of IL-10 in the supernatant: Luminex, LPS 6 h; for IL-10 expression by RNA / expression of TNF by RNA: qRT-PCR, LPS 2 h
Description: Cell culture. Bone marrow was flushed from the femur and tibia of C57BL/6 mice. Bone marrow was then resuspended and filtered to provide a cellular suspension. Red blood cells were lysed through hypotonic lysis. Remaining cells were washed and filtered. Isolated cells were incubated in the presence of M-CSF for 7 days to differentiate cells into macrophages. Cells were harvested, plated within 24 well plates and cultured in the presence of PX-04 or PX-07 at 0, 0.1 or 1 micromolar for 12 h. During the last 2-6 h of culture, cells were stimulated with lipopolysaccharide. After stimulation for 2 h, cells were collected for the isolation of RNA. Gene expression was quantified by qRT-PCR. After stimulation for 6 h, supernatant was collected for detection of cytokines by Luminex.

[4] = test system: DBA/2 mice injected with STZ; assay: STZ model of diabetic nephropathy; type: in vivo; settings: daily oral gavage; for albumin/creatinine ratio in urine: 12 weeks of treatment
Description: STZ models. Streptozotocin (STZ) can be used to induce diabetes in both rats and mice. Mice were used for the assessment of nephropathy. DBA/2 mice were injected with 40 mg/kg STZ by intraperitoneal injection for 5 consecutive days. Mice were randomized to vehicle- or PX-04-treated arms after confirmation of diabetes on day 10 (n=12). PX-04 was administered daily for 12 weeks by oral gavage after a damage accrual stage. Separately, mice were randomized to vehicle- or PX-07-treated arms after confirmation of diabetes on day 10 (n=8). PX-07 was administered daily for 12 weeks by oral gavage after a damage accrual stage.
Kidney function. Kidney function was assessed by collection of urine and histological assessment of kidneys. Urine was assayed for albumin/creatinine ratio. Kidneys were scored using a composite scoring method (0-9) encompassing glomerular area, mesangial expansion, and renal fibrosis.

[5] = test system: mice with collagen-induced arthritis; assay: Collagen-induced arthritis in mice; type: in vivo, C57Bl/6 mice; settings: 5 mg/kg daily oral, four weeks
Description: (§3) Models. Six-week-old C57Bl/6 mice were immunized with 200 μg of chicken collagen emulsified in complete Freund's adjuvant by intradermal injections at the base of the tail (n=8). Mice were treated with 5 mg/kg of PX-07 or vehicle daily for four weeks. Five- to six-week-old Lewis rats (n=8) were immunized with 200 μg of bovine collagen emulsified in incomplete Freund's adjuvant by intradermal injection into the base of the tail. A second boosting immunization was given after one week. PX-04 was administered daily at 2 or 20 mg/kg for 3 weeks.
(§4) Immunological analysis. Spleens were excised from mice and inguinal lymph nodes were excised from rats. Tissues were crushed and filtered to provide a cellular suspension. Red blood cells were lysed. Cells were labeled with mixtures of extracellular (CD45, CD3, CD4, CD8, B220, CD19, CD138, CD21, CD24, CD1d, CD11b, CD86, CD80) and intracellular (BCL6, IL21, IL10, TNF) antibodies in a sequential live staining in 96-well plates in preparation for flow cytometry. Data was captured on a BD FACS Celesta and analyzed using FACSDiva.

[6] = test system: mice challenged with DSS; assay: DSS model of colitis (acute IBD model); type: in vivo
Description: DSS model. Mice were given DSS in drinking water for seven days to induce disruption of the epithelial layer. At project initiation, mice were 8 weeks of age and began dosing 24 hours after being placed on DSS. Mice were weighed and scored daily for symptoms of disease (diarrhea, rectal bleeding, rectal inflammation, overall behavior). PX-04 was prepared within a 0.5% methylcellulose (12-15 cP) solution. Dosage used was 20 mg/kg delivered once daily. Dosage was calculated based off mean body weights for each gender. Oral dosage was delivered by orogastric gavage of dosage in 0.2 mL volume. Flow Cytometry. Colons were collected into RPMI/FBS buffer containing collagenase (300 U/mL) and DNase (50 U/mL) for digestion. Tissues were digested for 60 minutes under stirring at 37° C. Resultant cellular suspensions were filtered through 100 μm strainers, centrifuged (300×g, 8 min), and washed in fresh RPMI. Following filtration of the resulting single cell suspensions, immune cells were purified by Percoll gradient of cell-containing 40% Percoll overlayed onto 70% Percoll solution. After centrifugation, interphase was collected and washed to obtain enriched colonic lamina propria cell fractions. Cells were labeled with mixtures of extracellular (CD45, CD3, CD4, CD8, CD19, NK1.1, CD25, F4/80, CD11b, Gr1, CX3CR1, CD64) and intracellular (Tbet, RORγT, FOXP3, IFNγ, IL17, IL10) antibodies in a sequential live staining in 96-well plates. Data was acquired using a FACS Celesta flow cytometer with FACSDiva software.

[7] = test system: NZB/W F1 mice; assay: NZB/W F1 model of SLE; type: in vivo; settings: 10 mg/kg daily oral
Description: NZB/W F1 model. Twenty-four-week-old, female NZB/W F1 mice were randomized into vehicle or PX-04 treated arms based on baseline urine protein levels (n ═10). PX-04 was administered daily at 10 mg/kg for 12 weeks. Mice will be weighed on a weekly basis to update dosage formulation. Dosage will be calculated based off mean body weights.
Immunological analysis. Urine was collected for assay for protein content to test for kidney function at baseline, 6, and 12 weeks of treatment. Spleens were excised, crushed and filtered to provide a cellular suspension. Red blood cells were lysed. Cells were labeled with mixtures of extracellular (CD45, CD3, CD4) and intracellular (IL10) antibodies in a sequential live staining in 96-well plates in preparation for flow cytometry. Data was captured on a BD FACS Celesta and analyzed using FACSDiva.

[8] = test system: rats with collagen-induced arthritis; assay: Collagen-induced arthritis in rats; type: in vivo, Lewis rats
Description: as §3, §4

[9] = 20 mg/kg oral, colonic lamina propria, day 7
[10] = 2 and 20 mg/kg daily oral, 3 weeks, relative to vehicle

Row | SMILES | significance of change in IFNγ/TNFα production relative to vehicle treated control [1] | reduction in IFNγ production ([1]; 100 nM) | reduction in IFNγ production ([1]; 1 μM) | IFNγ in the absence of PLXDC2 [2] | TNFα in the absence of PLXDC2 [2] | IFNγ in the supernatant [3] | IL-6 in the supernatant [3] | TNF in the supernatant [3] | concentration of IL-10 in the supernatant [3] | IL-10 expression by RNA [3] | expression of TNF by RNA [3] | albumin/creatinine ratio in urine [4] | other results
1 | O=C(O)c1cccc(NC(=O)c2ncc(-c3cccc(Oc4ccccc4)c3)[nH]2)c1 [PX-09, m-[5-(m-Phenoxyphenyl)-1H-imidazol-2-ylcarbonylamino]benzoic acid] | significant decrease at both tested concentrations |  |  |  |  |  |  |  |  |  |  |  | 
2 | Cn1cccc(NC(=O)c2ncc(-c3cccc(Oc4ccccc4)c3)[nH]2)c1=O [PX-07, N-(1-Methyl-2-oxo-1H-pyrid-3-yl)-5-(m-phenoxyphenyl)-1H-imidazole-2-carboxamide] | significant decrease at both tested concentrations | ~55% | ~80% | no difference from vehicle | no difference from vehicle | greatly suppressed | greatly suppressed | greatly suppressed | higher | slight increase | inhibited | significantly reduced | histological score of kidney damage (composite 0-9) ([4]; after 12 weeks of treatment): significantly reduced; proportion of CD1d+T2-MZP B cells in the spleen [5]: increased; proportion of T follicular helper cells (CD4+IL21+BCL6+) in the spleen [5]: decreased
3 | O=C(Nc1ccccc1)c1nc(-c2cccc(Oc3ccccc3)c2)c[nH]1 [PX-02, N-Phenyl-4-(m-phenoxyphenyl)-1H-imidazole-2-carboxamide] | only induced significant changes at 1 μM |  |  |  |  |  |  |  |  |  |  |  | 
4 | O=C(Nc1ccc2c(c1)COC2)c1ncc(-c2cccc(Oc3ccccc3)c2)[nH]1 [PX-04, N-(1,3-Dihydro-5-isobenzofuranyl)-5-(m-phenoxyphenyl)-1H-imidazole-2-carboxamide] | significant decrease at both tested concentrations | ~55% | ~80% | no difference from vehicle | no difference from vehicle | greatly suppressed | greatly suppressed | greatly suppressed | higher | slight increase | inhibited | significantly reduced | cumulative disease activity ([6]; 20 mg/kg once daily oral gavage, 7 days of DSS): decreased; Th17 cells in the colon [6, 9]: greatly decreased; proportion of CD4+ T cells with IFNγ production [6, 9]: lower proportion; proportion of NK cells with IFNγ production [6, 9]: lower proportion; proportion of TNF producing dendritic cells [6, 9]: decreased; regulatory CD4+ T cells in the colon [6, 9]: slight increase; proportion of splenic CD4+IL10+ T cells relative to vehicle-treated mice ([7]; after 12 weeks): increased proportion; proteinuria relative to baseline on average ([7]; at 12 weeks of treatment): slight improvement; proteinuria grade ([7]; over 12 weeks): protected mice from the worsening; histological severity of disease in hind ankles (joint space, cartilage erosion, leukocytic infiltration, angiogenesis) ([8]; 2 mg/kg oral, relative to vehicle): reduced severity of disease; gene expression of CXCL1 within the synovium [8, 10]: reduced; gene expression of IL-1β within the synovium [8, 10]: reduced; gene expression of IL-6 within the synovium [8, 10]: reduced; ratio of TNF+ to IL10+ cells within CD4+ T cell fraction, inguinal lymph node ([8]; daily oral gavage, 3 weeks): decreased; ratio of TNF+ to IL10+ cells within myeloid cell fraction, inguinal lymph node ([8]; daily oral gavage, 3 weeks): decreased
5 | O=C(Nc1ccc[nH]c1=O)c1ncc(-c2cccc(Oc3ccccc3)c2)[nH]1 [PX-08, N-(2-Oxo-1H-pyrid-3-yl)-5-(m-phenoxyphenyl)-1H-imidazole-2-carboxamide] | significant decrease at both tested concentrations |  |  |  |  |  |  |  |  |  |  |  | 
